Measurements from US20220153746A1, “NITROGEN OXIDE-DONATING PDE-5 AND/OR PDE-6 INHIBITOR COMPOUNDS, AND USES THEREOF” (ILDONG PHARMACEUTICAL CO., LTD., priority 2020, published 2022).
Read-outs that look alike come from different tables or passages of the source.

Test: PK Phase (Group 2): plasma concentrations and pharmacokinetics of Compound 18 and its metabolite Compound 4 after once daily ocular instillation of Compound 18 nanosuspension for 7 days
Type: in vivo, New Zealand white rabbits
Settings: for Cmax / Tmax / AUC(0-t) / half-life: male, New Zealand white, rabbit, plasma, topical or ocular, 0.8 mg/kg; for AUC(0-t): read-out: AUC0-24; for Day 1 Compound 4 Plasma Concentration / Day 7 Compound 4 Plasma Concentration: metabolite after Compound 18 dosing
Excerpt: This example illustrates the procedures and results for the levels of Compound 18 and its metabolite Compound 4 in plasma and ocular tissues of normotensive rabbits following ocular instillation of Compound 18 once daily for 7 consecutive days.
Twenty five (25) male New Zealand white rabbits were divided into 5 groups of varying amounts of animals per group.
The Test article, Compound 18 was formulated as a 2% nanosuspension in DI water containing 0.2% PS80 (polyoxyethylenesorbitan, monooleate (Tween 80)) and 0.4% HPMC (hydroxypropylmethylcellulose) at pH 6.77. Referred to herein as “Compound 18 nanosuspension.”
The study consisted of three groups (Groups 1-3) of 19 male rabbits (NZW) that underwent once daily morning ocular installation (1 eyedrop) for 7 consecutive days (Day 0-6). Groups 4-5 each consisted of 3 male rabbits (NZW) that were not dosed.
Blood samples (1 mL) were collected from the jugular vein at the intervals set out below for each group. The samples were then inverted several times following collection and held on wet ice until centrifuged. Samples were centrifuged within 60 minutes of collection under refrigeration (set at 5° C. for 10 minutes at 2000 g. […]
Plasma and tissue samples from treated animals (Groups 1-3) were analyzed for Compound 18 and its metabolite Compound 4 concentrations by LC-MS/MS.
Pharmacokinetic analysis was conducted using WinNonlin Version 6.2.1 (Pharsight, Mountain View, Calif.), operating as a validated software system. Noncompartmental analysis was conducted using the extravascular administration model for ocular instillation dosing.
The peak plasma concentration, time to achieve peak plasma concentration, half-life, and area under the plasma concentration-time curve (Cmax, Tmax, T1/2, and AUC) were calculated from the PK phase individual animal plasma concentrations for each sampling time/dose group for Compound 18 and its metabolite Compound 4.
BA Assay: Quantitation Range 0.05 to 100 ng/mL for Compound 18, 0.15 to 100 ng/mL for Compound 4.
Plasma calibration standards (PLSTD-A) with Compound 18 concentrations ranging from 0.0500 to 100 ng/mL were prepared by spiking control rabbit plasma with appropriate calibration curve spiking solutions (SS-A). PLQC-A samples with concentrations of 0.150, 5.00, 50.0, and 80.0 ng/mL were prepared by spiking control rabbit plasma with appropriate SS-A-QC spiking solutions.
Plasma calibration standards (PLSTD-B) with Compound 4 concentrations ranging from 0.150 to 100 ng/mL were prepared by spiking control rabbit plasma with appropriate calibration curve spiking solutions (SS-B). PLQC-B samples with concentrations of 0.450, 5.00, 50.0, and 80.0 ng/mL were prepared by spiking control rabbit plasma with appropriate SS-B-QC spiking solutions. PLQC-B-Dil samples at 800 ng/mL were prepared by spiking control rabbit plasma with the SS-B-QC-Dil spiking solution at 16,000 ng/mL, and then diluted 20× with control rabbit plasma prior to extraction.
1. Thaw plasma standards, plasma QC samples, ocular tissue QC samples, incurred plasma samples and ocular tissue samples (AH/VH) (if applicable) on wet ice. Control plasma can be thawed in tepid water. Vortex before taking aliquots.
2. Pipet 50 μL of water for Reagent Blank, 50 μL of control plasma for Double Blank and Blank, 50 μL of pre-spiked plasma for Standards and QC samples, 50 μL of incurred plasma samples (if applicable) into a 96 well plate.
5. Add 200 μL of working internal standard (WIS) solution to all remaining samples.
6. Seal the plate and vortex for approximately 5 minutes. Centrifuge the plate at 3500 rpm for 10 minutes at ˜4° C.
7. Transfer ˜200 μL of each sample supernatant into the appropriate wells of a 96 well plate. Submit for LC MS/MS analysis.
A total of 25 rabbits were used for this study, including 19 treated rabbits and 6 control rabbits. […]

[1] = Day 1, Compound 18 0.8 mg/kg ocular instillation, Mean, n=4
[2] = Day 1, Compound 18 0.8 mg/kg ocular instillation, animal 207664
[3] = Day 1, Compound 18 0.8 mg/kg ocular instillation, animal 207665
[4] = Day 1, Compound 18 0.8 mg/kg ocular instillation, animal 207666
[5] = Day 1, Compound 18 0.8 mg/kg ocular instillation, animal 207667
[6] = Day 7, Compound 18 0.8 mg/kg ocular instillation, Mean, n=4
[7] = Day 7, Compound 18 0.8 mg/kg ocular instillation, animal 207664
[8] = Day 7, Compound 18 0.8 mg/kg ocular instillation, animal 207665
[9] = Day 7, Compound 18 0.8 mg/kg ocular instillation, animal 207666
[10] = Day 7, Compound 18 0.8 mg/kg ocular instillation, animal 207667

With `CCCc1nn(C)c2c(=O)[nH]c(-c3cc(S(=O)(=O)N4CC(CCCO)C4)ccc3OCC)nc12` [Compound 4, 5-(2-ethoxy-5-((3-(3-hydroxypropyl)azetidin-1-yl)sulfonyl)phenyl)-1-methyl-3-propyl-1,6-dihydro-7H-pyrazolo[4,3-d]pyrimidin-7-one] the Cmax [1] was 0.944 ± 0.565 ng/mL, the Tmax [1] was 30 min and the AUC(0-t) [1] was 1.14 ± 0.957 ng·h/mL. For the same compound, the Cmax [2] was 0.497 ng/mL, the Tmax [2] was 30 min and the AUC(0-t) [2] was 0.575 ng·h/mL. For the same compound, the Cmax [3] was 0.527 ng/mL, the Tmax [3] was 30 min and the half-life (Day 1, Compound 18 0.8 mg/kg ocular instillation, animal 207665 (one rabbit reportable)) was 24.8 min. It also gave an AUC(0-t) [3] of 0.321 ng·h/mL, a Cmax [4] of 1.7 ng/mL and a Tmax [4] of 30 min. For the same compound, the AUC(0-t) [4] was 2.46 ng·h/mL, the Cmax [5] was 1.05 ng/mL and the Tmax [5] was 30 min. It also gave an AUC(0-t) [5] of 1.18 ng·h/mL, a half-life (Day 7, Compound 18 0.8 mg/kg ocular instillation, Mean, n=2) of 79.2 ± 42.1 min and a Cmax [6] of 0.963 ± 0.17 ng/mL. It also gave a Tmax [6] of 45 ± 17.4 min, an AUC(0-t) [6] of 1.71 ± 0.416 ng·h/mL and a Cmax [7] of 0.851 ng/mL. For the same compound, the Tmax [7] was 30 min, the AUC(0-t) [7] was 1.13 ng·h/mL and the Cmax [8] was 0.938 ng/mL. For the same compound, the Tmax [8] was 30 min, the half-life [8] was 49.4 min and the AUC(0-t) [8] was 1.72 ng·h/mL. It also gave a Cmax [9] of 0.851 ng/mL, a Tmax [9] of 60 min and a half-life [9] of 109 min. For the same compound, the AUC(0-t) [9] was 1.92 ng·h/mL, the Cmax [10] was 1.21 ng/mL and the Tmax [10] was 60 min. For the same compound, the AUC(0-t) [10] was 2.08 ng·h/mL, the “Day 1 Compound 4 Plasma Concentration” value (2 h, animal 207665) was “BQL (BQL = Below lower limit of quantitation (0.0500 ng/mL for Compound 18 and 0.150 ng/mL for Compound 4))” and the “Day 1 Compound 4 Plasma Concentration” value (4 h, animal 207664) was “BQL (BQL = Below lower limit of quantitation (0.0500 ng/mL for Compound 18 and 0.150 ng/mL for Compound 4))”. The “Day 7 Compound 4 Plasma Concentration” value (4 h, animal 207664) was “BQL (BQL = Below lower limit of quantitation (0.0500 ng/mL for Compound 18 and 0.150 ng/mL for Compound 4))”, the “Day 1 Compound 4 Plasma Concentration” value (4 h, animal 207665) was “BQL (BQL = Below lower limit of quantitation (0.0500 ng/mL for Compound 18 and 0.150 ng/mL for Compound 4))” and the “Day 7 Compound 4 Plasma Concentration” value (4 h, animal 207665) was “BQL (BQL = Below lower limit of quantitation (0.0500 ng/mL for Compound 18 and 0.150 ng/mL for Compound 4))”. For the same compound, the “Day 1 Compound 4 Plasma Concentration” value (4 h, animal 207667) was “BQL (BQL = Below lower limit of quantitation (0.0500 ng/mL for Compound 18 and 0.150 ng/mL for Compound 4))”, the “Day 1 Compound 4 Plasma Concentration” value (8 h, animal 207664) was “BQL (BQL = Below lower limit of quantitation (0.0500 ng/mL for Compound 18 and 0.150 ng/mL for Compound 4))” and the “Day 7 Compound 4 Plasma Concentration” value (8 h, animal 207664) was “BQL (BQL = Below lower limit of quantitation (0.0500 ng/mL for Compound 18 and 0.150 ng/mL for Compound 4))”. The “Day 1 Compound 4 Plasma Concentration” value (8 h, animal 207665) was “BQL (BQL = Below lower limit of quantitation (0.0500 ng/mL for Compound 18 and 0.150 ng/mL for Compound 4))”, the “Day 1 Compound 4 Plasma Concentration” value (8 h, animal 207666) was “BQL (BQL = Below lower limit of quantitation (0.0500 ng/mL for Compound 18 and 0.150 ng/mL for Compound 4))” and the “Day 7 Compound 4 Plasma Concentration” value (8 h, animal 207666) was “BQL (BQL = Below lower limit of quantitation (0.0500 ng/mL for Compound 18 and 0.150 ng/mL for Compound 4))”. The “Day 1 Compound 4 Plasma Concentration” value (8 h, animal 207667) was “BQL (BQL = Below lower limit of quantitation (0.0500 ng/mL for Compound 18 and 0.150 ng/mL for Compound 4))”, the “Day 7 Compound 4 Plasma Concentration” value (8 h, animal 207667) was “BQL (BQL = Below lower limit of quantitation (0.0500 ng/mL for Compound 18 and 0.150 ng/mL for Compound 4))” and the “Day 1 Compound 4 Plasma Concentration” value (24 h, animal 207664) was “BQL (BQL = Below lower limit of quantitation (0.0500 ng/mL for Compound 18 and 0.150 ng/mL for Compound 4))”. The “Day 7 Compound 4 Plasma Concentration” value (24 h, animal 207664) was “BQL (BQL = Below lower limit of quantitation (0.0500 ng/mL for Compound 18 and 0.150 ng/mL for Compound 4))”, the “Day 1 Compound 4 Plasma Concentration” value (24 h, animal 207665) was “BQL (BQL = Below lower limit of quantitation (0.0500 ng/mL for Compound 18 and 0.150 ng/mL for Compound 4))” and the “Day 7 Compound 4 Plasma Concentration” value (24 h, animal 207665) was “BQL (BQL = Below lower limit of quantitation (0.0500 ng/mL for Compound 18 and 0.150 ng/mL for Compound 4))”. For the same compound, the “Day 1 Compound 4 Plasma Concentration” value (24 h, animal 207666) was “BQL (BQL = Below lower limit of quantitation (0.0500 ng/mL for Compound 18 and 0.150 ng/mL for Compound 4))”, the “Day 7 Compound 4 Plasma Concentration” value (24 h, animal 207666) was “BQL (BQL = Below lower limit of quantitation (0.0500 ng/mL for Compound 18 and 0.150 ng/mL for Compound 4))” and the “Day 1 Compound 4 Plasma Concentration” value (24 h, animal 207667) was “BQL (BQL = Below lower limit of quantitation (0.0500 ng/mL for Compound 18 and 0.150 ng/mL for Compound 4))”. The “Day 7 Compound 4 Plasma Concentration” value (24 h, animal 207667) was “BQL (BQL = Below lower limit of quantitation (0.0500 ng/mL for Compound 18 and 0.150 ng/mL for Compound 4))”.
